The source of these data is patent US10800792B2, “Inhibitors of Bruton's tyrosine kinase and method of their use” (JANSSEN PHARMACEUTICA NV, priority 2015, dated 2020).

The experiment concerns the target unphosphorylated-BTK kinase domain (UP-BTK), GST-tagged human BTK (389-659aa) (Homo sapiens (Human), UniProt Q06187). Nature of the experiment: BTK kinase Lanthascreen binding assay. Particulars: pIC50 = negative log of the IC50 in molar; for IC50: read-out: BTK_I_binding pIC50 (converted). As to the method:
BTK Kinase Lanthascreen Binding Assay:
A BTK kinase lanthascreen binding assay monitors compound binding to unphosphorylated-BTK kinase domain (UP-BTK), by competing with a fluorescent labeled tracer. […] Data were analyzed using Xlfit™ version 5.3 from ID Business Solutions (Guildford), Microsoft Excel add-in. pIC50 refers to the negative log of the IC50 in molar
In general terms: TR-FRET usually uses a lanthanide donor and a delayed reading to cut background.

[1] abbreviates: 60 minutes incubation, 50 nM Tracer 236.
The mark [2] stands for this setting: unphosphorylated-BTK kinase domain, 50 nM Tracer 236, 60 minutes.

Read-outs that look alike come from different tables or passages of the source.

Sequence of unphosphorylated-BTK kinase domain (UP-BTK), GST-tagged human BTK (389-659aa) (Q06187 389-659): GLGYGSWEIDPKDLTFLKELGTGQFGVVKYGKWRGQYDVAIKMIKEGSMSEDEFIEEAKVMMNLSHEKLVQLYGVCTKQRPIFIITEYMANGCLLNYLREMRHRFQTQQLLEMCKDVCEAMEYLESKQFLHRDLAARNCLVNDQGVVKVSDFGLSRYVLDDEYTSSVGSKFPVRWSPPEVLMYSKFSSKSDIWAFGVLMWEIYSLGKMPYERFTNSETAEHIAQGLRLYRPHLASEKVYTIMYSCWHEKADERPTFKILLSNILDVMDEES

For the compound `C=CC(=O)N1CC[C@@H](NC(=O)c2sc3nccc4c3c2NC(=O)N4c2ccc(Oc3ccccc3)cc2C)C1` (single isomer, unassigned) [Example 5, (R)—N-(1-Acryloylpyrrolidin-3-yl)-5-(*S)-(2-methyl-4-phenoxyphenyl)-4-oxo-4,5-dihydro-3H-1-thia-3,5,8-triazaacenaphthylene-2-carboxamide], the “BTK_I_binding pIC50” value under setting [1] stood at 8.1.

Regarding `C=CC(=O)N1C[C@@H](F)[C@@H](NC(=O)c2sc3nccc4c3c2NC(=O)N4c2ccc(Oc3ccccc3)cc2C)C1` (single isomer, unassigned) [Example 28, N-((3S,4R)-1-Acryloyl-4-fluoropyrrolidin-3-yl)-5-(*S)-(2-methyl-4-phenoxyphenyl)-4-oxo-4,5-dihydro-3H-1-thia-3,5,8-triazaacenaphthylene-2-carboxamide], under setting [1], the IC50 was 12.6 nM.

Regarding `Cc1cc(Oc2ccccc2)ccc1N1C(=O)Nc2c(C(=O)N[C@@H]3CCCN(C#N)C3)sc3nccc1c23` (single isomer, unassigned) [Example 35, (R)—N-(1-Cyanopiperidin-3-yl)-5-(*S)-(2-methyl-4-phenoxyphenyl)-4-oxo-4,5-dihydro-3H-1-thia-3,5,8-triazaacenaphthylene-2-carboxamide], under setting [1], the IC50 is 31.6 nM.

For `Cc1cc(Oc2ccccc2)ccc1N1C(=O)Nc2c(C(=O)N[C@@H]3CCCN(C(=O)/C(C#N)=C/C(C)(C)N4CCOCC4)C3)sc3nccc1c23` (single isomer, unassigned) [Example 43, (R,E)-N-(1-(2-Cyano-4-methyl-4-morpholinopent-2-enoyl)piperidin-3-yl)-5-(*S)-(2-methyl-4-phenoxyphenyl)-4-oxo-4,5-dihydro-3H-1-thia-3,5,8-triazaacenaphthylene-2-carboxamide], the “BTK_I_binding pIC50” value under setting [1] is reported as 7.2.

As to `C#CC(=O)N1CCC[C@@H](NC(=O)c2sc3nccc4c3c2NC(=O)N4c2ccc(Oc3ccccc3)cc2C)C1` (single isomer, unassigned) [Example 46, (R)-5-(*S)-(2-methyl-4-phenoxyphenyl)-4-oxo-N-(1-propioloylpiperidin-3-yl)-4,5-dihydro-3H-1-thia-3,5,8-triazaacenaphthylene-2-carboxamide], the “BTK_I_binding pIC50” value under setting [1] is recorded as 7.9.

As to `C=C(F)C(=O)N1CCC[C@@H](NC(=O)c2sc3nccc4c3c2NC(=O)N4c2ccc(Oc3ccccc3)cc2C)C1` (single isomer, unassigned) [Example 49, (R)—N-(1-(2-Fluoroacryloyl)piperidin-3-yl)-5-(*S)-(2-methyl-4-phenoxyphenyl)-4-oxo-4,5-dihydro-3H-1-thia-3,5,8-triazaacenaphthylene-2-carboxamide], under setting [1], the “BTK_I_binding pIC50” value worked out at 7.2.

As for `CC#CC(=O)N1CCC[C@@H](NC(=O)c2sc3nccc4c3c2NC(=O)N4c2ccc(Oc3ccccc3)cc2C)C1` (single isomer, unassigned) [Example 55, (R)—N-(1-(But-2-ynoyl)piperidin-3-yl)-5-(*S)-(2-methyl-4-phenoxyphenyl)-4-oxo-4,5-dihydro-3H-1-thia-3,5,8-triazaacenaphthylene-2-carboxamide], under setting [1], the “BTK_I_binding pIC50” value came out at 7.4.

On to `Cc1cc(Oc2ccccc2)ccc1N1C(=O)Nc2c(C(=O)N[C@H]3CCOC3)sc3nccc1c23` (single isomer, unassigned) [Example 68, (S)-5-(*S)-(2-Methyl-4-phenoxyphenyl)-4-oxo-N-(tetrahydrofuran-3-yl)-4,5-dihydro-3H-1-thia-3,5,8-triazaacenaphthylene-2-carboxamide], for which the “BTK_I_binding pIC50” value under setting [1] is recorded as 7.7.

In the case of `Cc1cc(Oc2ccccc2)ccc1N1C(=O)Nc2c(C(=O)N[C@@H]3CCOC3)sc3nccc1c23` (single isomer, unassigned) [Example 80, (R)-5-(*S)-(2-Methyl-4-phenoxyphenyl)-4-oxo-N-(tetrahydrofuran-3-yl)-4,5-dihydro-3H-1-thia-3,5,8-triazaacenaphthylene-2-carboxamide], under setting [1], the “BTK_I_binding pIC50” value is given as 7.8.

As for `CCC(=O)N1CC[C@@H](NC(=O)c2sc3nccc4c3c2NC(=O)N4c2ccc(Oc3ccccc3)cc2C)C1` (single isomer, unassigned) [Example 84, (R)-5-(*S)-(2-Methyl-4-phenoxyphenyl)-4-oxo-N-(1-propionylpyrrolidin-3-yl)-4,5-dihydro-3H-1-thia-3,5,8-triazaacenaphthylene-2-carboxamide], under setting [1], the “BTK_I_binding pIC50” value came to 7.5.

For `Cc1cc(Oc2ccccc2)ccc1N1C(=O)Nc2c(C(=O)N[C@@H]3CCN(C(C)C)C3)sc3nccc1c23` (single isomer, unassigned) [Example 93, (R)—N-(1-Isopropylpyrrolidin-3-yl)-5-(*S)-(2-methyl-4-phenoxyphenyl)-4-oxo-4,5-dihydro-3H-1-thia-3,5,8-triazaacenaphthylene-2-carboxamide], the “BTK_I_binding pIC50” value under setting [1] is 7.1.

As for `Cc1cc(Oc2ccccc2)ccc1N1C(=O)Nc2c(C(=O)N[C@@H]3CCCNC3)sc3nccc1c23` (single isomer, unassigned) [Example 98, (R)-5-(*S)-(2-Methyl-4-phenoxyphenyl)-4-oxo-N-(piperidin-3-yl)-4,5-dihydro-3H-1-thia-3,5,8-triazaacenaphthylene-2-carboxamide], the “BTK_I_binding pIC50” value under setting [1] is on record as 7.3.

With `Cc1cc(Oc2ccccc2)ccc1N1C(=O)Nc2c(C(=O)N[C@@H]3CCCN(C(=O)CCO)C3)sc3nccc1c23` (single isomer, unassigned) [Example 99, (R)—N-(1-(3-Hydroxypropanoyl)piperidin-3-yl)-5-(*S)-(2-methyl-4-phenoxyphenyl)-4-oxo-4,5-dihydro-3H-1-thia-3,5,8-triazaacenaphthylene-2-carboxamide], the “BTK_I_binding pIC50” value under setting [1] was found to be 7.6.

As for `C/C=C/C(=O)N1CCC[C@@H](NC(=O)c2sc3nccc4c3c2NC(=O)N4c2ccc(Oc3ccccc3)cc2C)C1` (single isomer, unassigned) [Example 100, (R,E)-N-(1-(But-2-enoyl)piperidin-3-yl)-5-(*S)-(2-methyl-4-phenoxyphenyl)-4-oxo-4,5-dihydro-3H-1-thia-3,5,8-triazaacenaphthylene-2-carboxamide], the “BTK_I_binding pIC50” value under setting [1] stood at 7.1.

Consider `CNCC(=O)N1CCC[C@@H](NC(=O)c2sc3nccc4c3c2NC(=O)N4c2ccc(Oc3ccccc3)cc2C)C1` (single isomer, unassigned) [Example 183, (R)-5-(*S)-(2-Methyl-4-phenoxyphenyl)-N-(1-(2-(methylamino)acetyl)piperidin-3-yl)-4-oxo-4,5-dihydro-3H-1-thia-3,5,8-triazaacenaphthylene-2-carboxamide], for which the “BTK_I_binding pIC50” value under setting [1] came out at 7.5.

With `CCC(=O)N1CCC[C@@H](NC(=O)c2sc3nccc4c3c2NC(=O)N4c2ccc(Oc3ccccc3)cc2C)C1` (single isomer, unassigned) [Example 184, (R)-5-(*S)-(2-Methyl-4-phenoxyphenyl)-4-oxo-N-(1-propionylpiperidin-3-yl)-4,5-dihydro-3H-1-thia-3,5,8-triazaacenaphthylene-2-carboxamide], under setting [1], the “BTK_I_binding pIC50” value is 7.4.

Turning to `CNCC(=O)N1CCC[C@@H](NC(=O)c2sc3nccc4c3c2NC(=O)N4c2ccc(Oc3ccccc3)cc2C)C1` (single isomer, unassigned) [Example 253, (R)-5-(*R)-(2-Methyl-4-phenoxyphenyl)-N-(1-(2-(methylamino)acetyl)piperidin-3-yl)-4-oxo-4,5-dihydro-3H-1-thia-3,5,8-triazaacenaphthylene-2-carboxamide], the “BTK_I_binding pIC50” value under setting [1] was 6.2.

With `Cc1cc(Oc2ccccc2)ccc1N1C(=O)Nc2c(C(=O)N[C@@H]3CCCN(C(=O)CCO)C3)sc3nccc1c23` (single isomer, unassigned) [Example 318, (R)—N-(1-(3-Hydroxypropanoyl)piperidin-3-yl)-5-(*R)-(2-methyl-4-phenoxyphenyl)-4-oxo-4,5-dihydro-3H-1-thia-3,5,8-triazaacenaphthylene-2-carboxamide], the “BTK_I_binding pIC50” value under setting [2] turned out to be 5.8.

In the case of `Cc1cc(Oc2ccccc2)ccc1N1C(=O)Nc2c(C(=O)N[C@H]3CCOC3)sc3nccc1c23` (single isomer, unassigned) [Example 323, (S)-5-(*R)-(2-Methyl-4-phenoxyphenyl)-4-oxo-N-(tetrahydrofuran-3-yl)-4,5-dihydro-3H-1-thia-3,5,8-triazaacenaphthylene-2-carboxamide], under setting [2], the “BTK_I_binding pIC50” value worked out at 5.7.

Take `CCC(=O)N1CC[C@@H](NC(=O)c2sc3nccc4c3c2NC(=O)N4c2ccc(Oc3ccccc3)cc2C)C1` (single isomer, unassigned) [Example 325, (R)-5-(*R)-(2-Methyl-4-phenoxyphenyl)-4-oxo-N-(1-propionylpyrrolidin-3-yl)-4,5-dihydro-3H-1-thia-3,5,8-triazaacenaphthylene-2-carboxamide]: the “BTK_I_binding pIC50” value under setting [2] is recorded as 5.7.

For `CCC(=O)N1CCC[C@@H](NC(=O)c2sc3nccc4c3c2NC(=O)N4c2ccc(Oc3ccccc3)cc2C)C1` (single isomer, unassigned) [Example 345, (R)-5-(*R)-(2-Methyl-4-phenoxyphenyl)-4-oxo-N-(1-propionylpiperidin-3-yl)-4,5-dihydro-3H-1-thia-3,5,8-triazaacenaphthylene-2-carboxamide], under setting [2], the “BTK_I_binding pIC50” value is less than 5.

With `Cc1cc(Oc2ccccc2)ccc1N1C(=O)Nc2c(C(=O)N[C@@H]3CCCN(C(=O)/C(C#N)=C/C4CC4)C3)sc3nccc1c23` (single isomer, unassigned) [Example 365, (R,E)-N-(1-(2-Cyano-3-cyclopropylacryloyl)piperidin-3-yl)-5-(*R)-(2-methyl-4-phenoxyphenyl)-4-oxo-4,5-dihydro-3H-1-thia-3,5,8-triazaacenaphthylene-2-carboxamide], the IC50 under setting [2] is 50.1 nM.
